Measurements reported in patent US20110082130A1 (LIGAND PHARMACEUTICALS, INC., priority 2006, published 2011).

target: T1, chimeric human H3 receptor (Homo sapiens, UniProt Q9Y5N1); assay: Chimeric human H3 receptor screening GTP binding assay (inhibition of histamine-stimulated GTP-gamma35S binding, Example 8); type: biochemical; details: 4 μM of the compound, 1 μM histamine, "†" in Ki of Table II, read-out: percent inhibition of the signal obtained with 1 μM histamine
T1 construct: made in house; host or cells: Sf9 insect cells (baculovirus); P2 membrane preparation
T1 sequence (Q9Y5N1 with tags, fused parts or gaps): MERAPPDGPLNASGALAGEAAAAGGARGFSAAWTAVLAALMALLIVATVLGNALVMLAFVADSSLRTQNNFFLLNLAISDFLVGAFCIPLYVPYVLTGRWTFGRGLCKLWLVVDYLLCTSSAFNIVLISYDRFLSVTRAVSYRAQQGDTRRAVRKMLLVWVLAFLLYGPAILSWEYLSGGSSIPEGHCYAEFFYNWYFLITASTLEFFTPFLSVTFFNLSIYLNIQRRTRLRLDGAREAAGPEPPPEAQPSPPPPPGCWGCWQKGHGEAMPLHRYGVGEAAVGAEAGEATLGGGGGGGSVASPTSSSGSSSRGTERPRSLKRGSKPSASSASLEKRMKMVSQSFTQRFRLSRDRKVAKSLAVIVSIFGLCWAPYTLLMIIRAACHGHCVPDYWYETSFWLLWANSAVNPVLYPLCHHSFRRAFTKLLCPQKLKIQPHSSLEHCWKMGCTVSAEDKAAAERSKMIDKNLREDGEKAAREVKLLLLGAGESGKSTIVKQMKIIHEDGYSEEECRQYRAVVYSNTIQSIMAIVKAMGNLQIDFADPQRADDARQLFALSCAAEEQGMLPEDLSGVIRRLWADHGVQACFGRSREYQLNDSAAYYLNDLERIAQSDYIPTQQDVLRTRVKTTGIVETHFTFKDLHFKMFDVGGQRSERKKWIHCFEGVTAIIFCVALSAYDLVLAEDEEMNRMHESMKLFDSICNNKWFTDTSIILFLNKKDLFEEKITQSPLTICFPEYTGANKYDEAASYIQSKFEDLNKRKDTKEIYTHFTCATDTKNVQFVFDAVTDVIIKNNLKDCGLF
How it was run: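 Values are percent inhibition of 1 μM histamine-stimulated GTP-gamma35S […] binding, with non-specific binding (10 μM GTP-gammaS) subtracted, by compounds tested at 4 μM. Membranes (35 μg) from Sf9 cells expressing chimeric human H3 with G-protein subunits were used in Tris pH 7.4 buffer with 10 μM GDP. Incubation lasted 60 min at room temperature, followed by filtration and scintillation counting.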

Inhibition at 4 µM, ≥ 90%:
Cc1ccc(-c2ccc3c(c2)CCN(CC(=O)N2CCN(C(C)C)CC2)C3)cc1 [Compound 438, 2-[2-(4-isopropylpiperazin-1-yl)-2-oxoethyl]-6-(4-methylphenyl)-1,2,3,4-tetrahydroisoquinoline]
Cc1cccc(-c2ccc3c(c2)CCN(CC(=O)N2CCN(C4CCCCC4)CC2)C3)c1 [Compound 434, 2-[2-(4-cyclohexylpiperazin-1-yl)-2-oxoethyl]-6-(3-methylphenyl)-1,2,3,4-tetrahydroisoquinoline]
O=C(CN1CCc2cc(-c3cccc4c3oc3ccccc34)ccc2C1)N1CCN(C2CCCC2)CC1 [Compound 379, 2-[2-(4-cyclopentylpiperazin-1-yl)-2-oxoethyl]-6-dibenzo[b,d]furan-4-yl-1,2,3,4-tetrahydroisoquinoline]
O=C(CN1CCc2cc(-c3cccc(Cl)c3)ccc2C1)N1CCN(C2CCC2)CC1 [Compound 401, 6-(3-chlorophenyl)-2-[2-(4-cyclobutylpiperazin-1-yl)-2-oxoethyl]-1,2,3,4-tetrahydroisoquinoline]
O=C(CN1CCc2cc(-c3ccc(Cl)cc3)ccc2C1)N1CCN(C2CCC2)CC1 [Compound 404, 6-(4-chlorophenyl)-2-[2-(4-cyclobutylpiperazin-1-yl)-2-oxoethyl]-1,2,3,4-tetrahydroisoquinoline]
Cc1ccc(-c2ccc3c(c2)CCN(CC(=O)N2CCN(C4CCC4)CC2)C3)cc1 [Compound 435, 2-[2-(4-cyclobutylpiperazin-1-yl)-2-oxoethyl]-6-(4-methylphenyl)-1,2,3,4-tetrahydroisoquinoline]
CC(C)N1CCN(C(=O)CN2CCc3cc(-c4ccc5c(c4)OCCO5)ccc3C2)CC1 [Compound 385, 6-(2,3-dihydro-1,4-benzodioxin-6-yl)-2-[2-(4-isopropylpiperazin-1-yl)-2-oxoethyl]-1,2,3,4-tetrahydroisoquinoline]
Cc1ccc(-c2ccc3c(c2)CCN(CC(=O)N2CCN(C4CCCC4)CC2)C3)c(F)c1 [Compound 421, 2-[2-(4-cyclopentylpiperazin-1-yl)-2-oxoethyl]-6-(2-fluoro-4-methylphenyl)-1,2,3,4-tetrahydroisoquinoline]
CCCc1ccc(-c2ccc3c(c2)CCN(CC(=O)N2CCN(C4CCCCC4)CC2)C3)cc1 [Compound 465, 2-[2-(4-cyclohexylpiperazin-1-yl)-2-oxoethyl]-6-(4-propylphenyl)-1,2,3,4-tetrahydroisoquinoline]
O=C(CN1CCc2cc(-c3ccc(OC(F)(F)F)cc3)ccc2C1)N1CCN(C2CCCCC2)CC1 [Compound 480, 2-[2-(4-cyclohexylpiperazin-1-yl)-2-oxoethyl]-6-[4-(trifluoromethoxy)phenyl]-1,2,3,4-tetrahydroisoquinoline]

same assay, conditions: Table II "Ki", symbol †, 4 μM of the compound, 1 μM histamine, read-out: percent inhibition of the signal obtained with 1 μM histamine

Inhibition at 4 µM, ≥ 90%:
CN(CC#N)c1ccc2c(n1)CCN(CC(=O)N1CCN(C3CCC3)CC1)C2 [Compound 680, [{6-[2-(4-cyclobutylpiperazin-1-yl)-2-oxoethyl]-5,6,7,8-tetrahydro-1,6-naphthyridin-2-yl}(methyl)amino] acetonitrile]
O=C(CN1CCc2cc(-c3ccc(Oc4ccccc4)cc3)ccc2C1)N1CCN(C2CCCCC2)CC1 [Compound 488, 2-[2-(4-cyclohexylpiperazin-1-yl)-2-oxoethyl]-6-(4-phenoxyphenyl)-1,2,3,4-tetrahydroisoquinoline]
CSc1cccc(-c2ccc3c(c2)CCN(CC(=O)N2CCN(C4CCC4)CC2)C3)c1 [Compound 494, 2-[2-(4-cyclobutylpiperazin-1-yl)-2-oxoethyl]-6-[3-(methylthio)phenyl]-1,2,3,4-tetrahydroisoquinoline]
O=C(CN1CCc2cc(-c3ccccc3Oc3ccccc3)ccc2C1)N1CCN(C2CCCCC2)CC1 [Compound 577, 2-[2-(4-cyclohexylpiperazin-1-yl)-2-oxoethyl]-6-(2-phenoxyphenyl)-1,2,3,4-tetrahydroisoquinoline]
CSc1cccc(-c2ccc3c(c2)CCN(CC(=O)N2CCN(C(C)C)CC2)C3)c1 [Compound 497, 2-[2-(4-isopropylpiperazin-1-yl)-2-oxoethyl]-6-[3-(methylthio)phenyl]-1,2,3,4-tetrahydroisoquinoline]
O=C(CN1CCc2cc(-c3ccccc3Oc3ccccc3)ccc2C1)N1CCN(C2CCC2)CC1 [Compound 575, 2-[2-(4-cyclobutylpiperazin-1-yl)-2-oxoethyl]-6-(2-phenoxyphenyl)-1,2,3,4-tetrahydroisoquinoline]
CCOc1ccccc1-c1ccc2c(c1)CCN(CC(=O)N1CCN(C3CCCCC3)CC1)C2 [Compound 568, 2-[2-(4-cyclohexylpiperazin-1-yl)-2-oxoethyl]-6-(2-ethoxyphenyl)-1,2,3,4-tetrahydroisoquinoline]
COc1ccc(-c2ccc3c(c2)CCN(CC(=O)N2CCN(C4CCCCC4)CC2)C3)cc1C [Compound 542, 2-[2-(4-cyclohexylpiperazin-1-yl)-2-oxoethyl]-6-(4-methoxy-3-methylphenyl)-1,2,3,4-tetrahydroisoquinoline]
CSc1cccc(-c2ccc3c(c2)CCN(CC(=O)N2CCN(C4CCCCC4)CC2)C3)c1 [Compound 496, 2-[2-(4-cyclohexylpiperazin-1-yl)-2-oxoethyl]-6-[3-(methylthio)phenyl]-1,2,3,4-tetrahydroisoquinoline]
CCOc1cccc(-c2ccc3c(c2)CCN(CC(=O)N2CCN(C4CCCCC4)CC2)C3)c1 [Compound 484, 2-[2-(4-cyclohexylpiperazin-1-yl)-2-oxoethyl]-6-(3-ethoxyphenyl)-1,2,3,4-tetrahydroisoquinoline]
COc1ccc(Cl)cc1-c1ccc2c(c1)CCN(CC(=O)N1CCN(C3CCCCC3)CC1)C2 [Compound 558, 6-(5-chloro-2-methoxyphenyl)-2-[2-(4-cyclohexylpiperazin-1-yl)-2-oxoethyl]-1,2,3,4-tetrahydroisoquinoline]
CCCOc1ccc(-c2ccc3c(c2)CCN(CC(=O)N2CCN(C(C)C)CC2)C3)cc1 [Compound 547, 2-[2-(4-isopropylpiperazin-1-yl)-2-oxoethyl]-6-(4-propoxyphenyl)-1,2,3,4-tetrahydroisoquinoline]
CC(C)C(C)N1C[C@@H]2C[C@H]1CN2C(=O)CN1CCc2cc(-c3cncnc3)ccc2C1 (stereo in doubt) [Compound 608, 2-{2-[(1S,4S)-5-(1,2-dimethylpropyl)-2,5-diazabicyclo[2.2.1]hept-2-yl]-2-oxoethyl}-6-pyrimidin-5-yl-1,2,3,4-tetrahydroisoquinoline]
CC(C)N1CCN(C(=O)CN2CCc3cc(-c4cc(F)ccc4F)ccc3C2)CC1 [Compound 585, 6-(2,5-difluorophenyl)-2-[2-(4-isopropylpiperazin-1-yl)-2-oxoethyl]-1,2,3,4-tetrahydroisoquinoline]
COc1ccc(-c2ccc(-c3ccc4c(c3)CCN(CC(=O)N3CCN(C5CCCCC5)CC3)C4)cc2)cc1 [Compound 500, 2-[2-(4-cyclohexylpiperazin-1-yl)-2-oxoethyl]-6-(4′-methoxybiphenyl-4-yl)-1,2,3,4-tetrahydroisoquinoline]
CCOc1ccccc1-c1ccc2c(c1)CCN(CC(=O)N1CCN(C(C)C)CC1)C2 [Compound 569, 6-(2-ethoxyphenyl)-2-[2-(4-isopropylpiperazin-1-yl)-2-oxoethyl]-1,2,3,4-tetrahydroisoquinoline]
CCOc1ccccc1-c1ccc2c(c1)CCN(CC(=O)N1CCN(C3CCCC3)CC1)C2 [Compound 567, 2-[2-(4-cyclopentylpiperazin-1-yl)-2-oxoethyl]-6-(2-ethoxyphenyl)-1,2,3,4-tetrahydroisoquinoline]
COc1ccc(-c2ccc(-c3ccc4c(c3)CCN(CC(=O)N3CCN(C(C)C)CC3)C4)cc2)cc1 [Compound 501, 2-[2-(4-isopropylpiperazin-1-yl)-2-oxoethyl]-6-(4′-methoxybiphenyl-4-yl)-1,2,3,4-tetrahydroisoquinoline]
O=C(CN1CCc2cc(-c3cncnc3)ccc2C1)N1C[C@@H]2C[C@H]1CN2C1CCCC1 (stereo in doubt) [Compound 612, 2-{2-[(1S,4S)-5-cyclopentyl-2,5-diazabicyclo[2.2.1]hept-2-yl]-2-oxoethyl}-6-pyrimidin-5-yl-1,2,3,4-tetrahydroisoquinoline]
COc1ccc(C(C)C)cc1-c1ccc2c(c1)CCN(CC(=O)N1CCN(C3CCCC3)CC1)C2 [Compound 555, 2-[2-(4-cyclopentylpiperazin-1-yl)-2-oxoethyl]-6-(5-isopropyl-2-methoxyphenyl)-1,2,3,4-tetrahydroisoquinoline]
COc1ccc2cc(-c3ccc4c(c3)CCN(CC(=O)N3CCN(C5CCCC5)CC3)C4)ccc2c1 [Compound 510, 2-[2-(4-cyclopentylpiperazin-1-yl)-2-oxoethyl]-6-(6-methoxy-2-naphthyl)-1,2,3,4-tetrahydroisoquinoline]
COc1ccc(-c2ccc3c(c2)CCN(CC(=O)N2CCN(C4CCC4)CC2)C3)c(C)c1 [Compound 548, 2-[2-(4-cyclobutylpiperazin-1-yl)-2-oxoethyl]-6-(4-methoxy-2-methylphenyl)-1,2,3,4-tetrahydroisoquinoline]
O=C(CN1CCc2cc(-c3cc(F)ccc3F)ccc2C1)N1CCN(C2CCCC2)CC1 [Compound 583, 2-[2-(4-cyclopentylpiperazin-1-yl)-2-oxoethyl]-6-(2,5-difluorophenyl)-1,2,3,4-tetrahydroisoquinoline]
